In the supplement of paper PMC10307832 one finds relative viability data, which are given here for nine cell lines.

What all share (assay): relative viability (nuclei count vs DMSO), 5 days (fraction); higher = more cells survive
Compound in the assay “Lapatinib + Olaparib”: CS(=O)(=O)CCNCc1ccc(-c2ccc3ncnc(Nc4ccc(OCc5cccc(F)c5)c(Cl)c4)c3c2)o1 [Lapatinib] + O=C(c1cc(Cc2n[nH]c(=O)c3ccccc23)ccc1F)N1CCN(C(=O)C2CC2)CC1 [Olaparib] (partner 8 µM)
The method in brief: (§1)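 For relative viability, nuclei counts in treated wells were divided by those in vehicle wells. Lung cancer cell lines had been pin-tool dosed in 1536-well plates the day after seeding and cultured for 5 days, then fixed and stained in one step (final 0.05% Triton X-100, 1% formaldehyde, 1 ug/ml Hoechst) and imaged at 4×. Doses were one drug alone or a fixed anchor-drug dose plus five library-drug doses (not always all listed) in √10 steps, and values are duplicate-plate medians.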

Compound in the assay “Wnt-C59 + OSI-027”: CC1=NC=CC(=C1)C2=CC=C(C=C2)CC(=O)NC3=CC=C(C=C3)C4=CN=CC=C4 [Wnt-C59] + COc1cccc2cc(-c3nc([C@H]4CC[C@H](C(=O)O)CC4)n4ncnc(N)c34)[nH]c12 [OSI-027] (partner 0.5 µM)
The gist of the method:
as §1

Compound in the assay “Wnt-C59 + Olaparib”: CC1=NC=CC(=C1)C2=CC=C(C=C2)CC(=O)NC3=CC=C(C=C3)C4=CN=CC=C4 [Wnt-C59] + O=C(c1cc(Cc2n[nH]c(=O)c3ccccc23)ccc1F)N1CCN(C(=O)C2CC2)CC1 [Olaparib] (partner 8 µM)
The gist of the method:
as §1

Compound in the assay “Lapatinib + Dasatinib”: CS(=O)(=O)CCNCc1ccc(-c2ccc3ncnc(Nc4ccc(OCc5cccc(F)c5)c(Cl)c4)c3c2)o1 [Lapatinib] + Cc1nc(Nc2ncc(C(=O)Nc3c(C)cccc3Cl)s2)cc(N2CCN(CCO)CC2)n1 [Dasatinib] (partner 0.075 µM)
The gist of the method:
as §1

Regarding HCC-44, the relative viability worked out at 0.981 with Lapatinib + Olaparib (first compound 0.02 µM); 1 in the assay with Lapatinib + Olaparib (first compound 0.06325 µM); 0.992 with Lapatinib + Olaparib (first compound 0.2 µM); 0.974 in the assay with Lapatinib + Olaparib (first compound 0.6325 µM); 0.867 with Lapatinib + Olaparib (first compound 2 µM); 0.768 in the assay with Wnt-C59 + OSI-027 (first compound 0.001 µM). Further, the relative viability with Wnt-C59 + OSI-027 (first compound 0.01 µM) amounted to 0.671; with Wnt-C59 + OSI-027 (first compound 0.03162 µM), 0.538; with Wnt-C59 + OSI-027 (first compound 0.1 µM) it was 0.608; with Wnt-C59 + Olaparib (first compound 0.001 µM), 0.981; in the assay with Wnt-C59 + Olaparib (first compound 0.01 µM), 1.02; with Wnt-C59 + Olaparib (first compound 0.03162 µM) it was 0.965. Also, the relative viability with Wnt-C59 + Olaparib (first compound 0.1 µM) was 0.92.
Turning to HCC-78, the relative viability with Lapatinib + Olaparib (first compound 0.06325 µM) came out at 0.519; with Lapatinib + Olaparib (first compound 0.2 µM) it was 0.926; with Lapatinib + Olaparib (first compound 0.6325 µM), 0.814; in the assay with Lapatinib + Olaparib (first compound 2 µM), 0.846; with Lapatinib + Dasatinib (first compound 0.06325 µM) it was 0.42; with Lapatinib + Dasatinib (first compound 0.2 µM), 0.333. For the same cell line, the relative viability is 0.464 with Lapatinib + Dasatinib (first compound 0.6325 µM); 0.411 with Lapatinib + Dasatinib (first compound 2 µM); 0.389 in the assay with Wnt-C59 + OSI-027 (first compound 0.001 µM); 0.364 with Wnt-C59 + OSI-027 (first compound 0.01 µM); 0.366 with Wnt-C59 + OSI-027 (first compound 0.03162 µM); 0.411 with Wnt-C59 + OSI-027 (first compound 0.1 µM). Moreover, the relative viability with Wnt-C59 + Olaparib (first compound 0.001 µM) stood at 0.883; with Wnt-C59 + Olaparib (first compound 0.01 µM), 0.852; with Wnt-C59 + Olaparib (first compound 0.03162 µM), 0.855; in the assay with Wnt-C59 + Olaparib (first compound 0.1 µM), 0.633.
For HCC-366, the relative viability amounted to 0.411 with Lapatinib + Olaparib (first compound 0.06325 µM); 0.38 with Lapatinib + Olaparib (first compound 0.2 µM); 0.38 in the assay with Lapatinib + Olaparib (first compound 0.6325 µM); 0.251 in the assay with Lapatinib + Olaparib (first compound 2 µM); 0.493 with Lapatinib + Dasatinib (first compound 0.06325 µM); 0.572 with Lapatinib + Dasatinib (first compound 0.2 µM). Besides, the relative viability was 0.722 with Lapatinib + Dasatinib (first compound 0.6325 µM); 0.544 with Lapatinib + Dasatinib (first compound 2 µM); 0.774 in the assay with Wnt-C59 + OSI-027 (first compound 0.001 µM); 0.542 with Wnt-C59 + OSI-027 (first compound 0.01 µM); 1.02 with Wnt-C59 + OSI-027 (first compound 0.03162 µM); 1.04 in the assay with Wnt-C59 + OSI-027 (first compound 0.1 µM). Further, the relative viability with Wnt-C59 + Olaparib (first compound 0.001 µM) turned out to be 0.346; in the assay with Wnt-C59 + Olaparib (first compound 0.01 µM), 0.359; in the assay with Wnt-C59 + Olaparib (first compound 0.03162 µM), 0.362; with Wnt-C59 + Olaparib (first compound 0.1 µM), 0.34.
Consider HCC-827, for which the relative viability with Lapatinib + Olaparib (first compound 0.02 µM) was determined as 0.591; in the assay with Lapatinib + Olaparib (first compound 0.06325 µM), 0.656; with Lapatinib + Olaparib (first compound 0.2 µM), 0.533; in the assay with Lapatinib + Olaparib (first compound 0.6325 µM) it was 0.678; with Lapatinib + Olaparib (first compound 2 µM) it was 0.549; with Lapatinib + Dasatinib (first compound 0.02 µM) it was 0.334. Further, the relative viability with Lapatinib + Dasatinib (first compound 0.06325 µM) was determined as 0.313; with Lapatinib + Dasatinib (first compound 0.2 µM), 0.281; with Lapatinib + Dasatinib (first compound 0.6325 µM) it was 0.377; in the assay with Lapatinib + Dasatinib (first compound 2 µM), 0.155; in the assay with Wnt-C59 + OSI-027 (first compound 0.001 µM) it was 0.877; with Wnt-C59 + OSI-027 (first compound 0.01 µM), 0.724. Further, the relative viability with Wnt-C59 + OSI-027 (first compound 0.03162 µM) was 0.9; with Wnt-C59 + OSI-027 (first compound 0.1 µM), 0.761; with Wnt-C59 + Olaparib (first compound 0.001 µM), 0.668; with Wnt-C59 + Olaparib (first compound 0.01 µM), 0.594; with Wnt-C59 + Olaparib (first compound 0.03162 µM), 0.689; with Wnt-C59 + Olaparib (first compound 0.1 µM), 0.587.
As to HOP-62, the relative viability with Lapatinib + Olaparib (first compound 0.06325 µM) was 0.4; with Lapatinib + Olaparib (first compound 0.2 µM), 0.59; with Lapatinib + Olaparib (first compound 0.6325 µM), 0.328; in the assay with Lapatinib + Olaparib (first compound 2 µM), 0.369; with Lapatinib + Dasatinib (first compound 0.02 µM) it was 0.508; with Lapatinib + Dasatinib (first compound 0.06325 µM), 0.633. Also, the relative viability with Lapatinib + Dasatinib (first compound 0.2 µM) was 0.615; with Lapatinib + Dasatinib (first compound 0.6325 µM) it was 0.69; in the assay with Lapatinib + Dasatinib (first compound 2 µM), 0.566; with Wnt-C59 + OSI-027 (first compound 0.001 µM), 0.743; with Wnt-C59 + OSI-027 (first compound 0.01 µM) it was 0.813; with Wnt-C59 + OSI-027 (first compound 0.03162 µM), 0.788. The relative viability with Wnt-C59 + OSI-027 (first compound 0.1 µM) worked out at 0.852; in the assay with Wnt-C59 + Olaparib (first compound 0.001 µM) it was 0.523; with Wnt-C59 + Olaparib (first compound 0.01 µM), 0.266; with Wnt-C59 + Olaparib (first compound 0.03162 µM), 0.363; in the assay with Wnt-C59 + Olaparib (first compound 0.1 µM) it was 0.343.
For the cell line IA-LM, the relative viability with Lapatinib + Olaparib (first compound 0.02 µM) is 0.789; with Lapatinib + Olaparib (first compound 0.06325 µM), 0.855; in the assay with Lapatinib + Olaparib (first compound 0.2 µM), 0.778; with Lapatinib + Olaparib (first compound 0.6325 µM), 0.886; with Lapatinib + Olaparib (first compound 2 µM), 0.843; with Wnt-C59 + Olaparib (first compound 0.001 µM), 0.848. Besides, the relative viability with Wnt-C59 + Olaparib (first compound 0.01 µM) was found to be 0.873; with Wnt-C59 + Olaparib (first compound 0.03162 µM) it was 0.969; with Wnt-C59 + Olaparib (first compound 0.1 µM), 0.712.
As for LC-2-ad, the relative viability is 0.796 with Lapatinib + Olaparib (first compound 0.06325 µM); 0.704 in the assay with Lapatinib + Olaparib (first compound 0.2 µM); 0.675 with Lapatinib + Olaparib (first compound 0.6325 µM); 0.694 with Lapatinib + Olaparib (first compound 2 µM); 0.382 with Lapatinib + Dasatinib (first compound 0.06325 µM); 0.687 with Lapatinib + Dasatinib (first compound 0.2 µM). The relative viability with Lapatinib + Dasatinib (first compound 0.6325 µM) turned out to be 0.514; in the assay with Lapatinib + Dasatinib (first compound 2 µM), 0.465; with Wnt-C59 + OSI-027 (first compound 0.001 µM), 1.18; in the assay with Wnt-C59 + OSI-027 (first compound 0.01 µM), 0.822; with Wnt-C59 + OSI-027 (first compound 0.03162 µM), 0.937; in the assay with Wnt-C59 + OSI-027 (first compound 0.1 µM), 0.729. In addition, the relative viability with Wnt-C59 + Olaparib (first compound 0.001 µM) was 0.725; with Wnt-C59 + Olaparib (first compound 0.01 µM), 0.74; with Wnt-C59 + Olaparib (first compound 0.03162 µM), 0.716; with Wnt-C59 + Olaparib (first compound 0.1 µM), 0.356.
As for LCLC-97TM1, the relative viability was 0.342 with Lapatinib + Olaparib (first compound 0.06325 µM); 0.417 with Lapatinib + Olaparib (first compound 0.2 µM); 0.387 with Lapatinib + Olaparib (first compound 0.6325 µM); 0.345 in the assay with Lapatinib + Olaparib (first compound 2 µM); 0.854 with Lapatinib + Dasatinib (first compound 0.2 µM); 0.91 with Lapatinib + Dasatinib (first compound 0.6325 µM). In addition, the relative viability with Lapatinib + Dasatinib (first compound 2 µM) turned out to be 0.875; with Wnt-C59 + OSI-027 (first compound 0.001 µM) it was 0.581; with Wnt-C59 + OSI-027 (first compound 0.01 µM) it was 0.512; with Wnt-C59 + OSI-027 (first compound 0.03162 µM), 0.667; in the assay with Wnt-C59 + OSI-027 (first compound 0.1 µM) it was 0.502; in the assay with Wnt-C59 + Olaparib (first compound 0.001 µM), 0.403. Further, the relative viability with Wnt-C59 + Olaparib (first compound 0.01 µM) was 0.434; with Wnt-C59 + Olaparib (first compound 0.03162 µM) it was 0.358; in the assay with Wnt-C59 + Olaparib (first compound 0.1 µM), 0.323.
For the cell line LCLC-103H, the relative viability in the assay with Lapatinib + Olaparib (first compound 0.02 µM) was found to be 0.786; in the assay with Lapatinib + Olaparib (first compound 0.06325 µM), 0.664; in the assay with Lapatinib + Olaparib (first compound 0.2 µM), 0.762; with Lapatinib + Olaparib (first compound 0.6325 µM) it was 0.719; with Lapatinib + Olaparib (first compound 2 µM), 0.762; with Lapatinib + Dasatinib (first compound 0.02 µM) it was 0.312. Also, the relative viability worked out at 0.378 in the assay with Lapatinib + Dasatinib (first compound 0.06325 µM); 0.455 in the assay with Lapatinib + Dasatinib (first compound 0.2 µM); 0.511 with Lapatinib + Dasatinib (first compound 0.6325 µM); 0.416 with Lapatinib + Dasatinib (first compound 2 µM); 0.458 with Wnt-C59 + OSI-027 (first compound 0.001 µM); 0.533 in the assay with Wnt-C59 + OSI-027 (first compound 0.01 µM). Moreover, the relative viability in the assay with Wnt-C59 + OSI-027 (first compound 0.03162 µM) was 0.527; in the assay with Wnt-C59 + OSI-027 (first compound 0.1 µM), 0.498; with Wnt-C59 + Olaparib (first compound 0.001 µM), 0.81; in the assay with Wnt-C59 + Olaparib (first compound 0.01 µM), 0.737; in the assay with Wnt-C59 + Olaparib (first compound 0.03162 µM), 0.699; with Wnt-C59 + Olaparib (first compound 0.1 µM) it was 0.793.
